Assay results reported in the RepoRT retention time repository.

Assay: RP, Waters CORTECS UPLC C18, 100 × 2.1 mm, 1.6 µm, 40 °C, 0.4 mL/min, estimated dead time 0.55 min; A: water + 0.1% formic acid, pH 3; B: acetonitrile + 0.1% formic acid, pH 3; gradient (min/%B) 0/5 1.12/5 6.41/99.5 10.01/99.5
Conditions: stereoisomer not certain

SMILES	LC retention time [min]
Cc1c(C)c2c(c(C)c1O)CCC(C)(CCCC(C)CCCC(C)CCCC(C)C)O2 (stereo not drawn) [ALPHA-TOCOPHEROL]	5.92
N[C@@H](Cc1ccc(O)c([N+](=O)[O-])c1)C(=O)O [3-NITRO-L-TYROSINE]	1.5
CC=C(C)C(=O)OC(CC(=O)[O-])C[N+](C)(C)C [Tigloyl-L-carnitine]	2.43
CC(=O)NCCc1c[nH]c2ccc(O)cc12 [N-ACETYLSEROTONIN]	2.55
COP(=O)(OC)OC=C(Cl)Cl [Dichlorvos]	3.89
O=C(O)CNC(=O)c1ccccc1 [Hippuric acid]	2.6
Nc1cc(C(=O)O)ccc1O [3-AMINO-4-HYDROXYBENZOATE]	0.722
COP(=O)(OC)C(O)C(Cl)(Cl)Cl (stereo not given) [Trichlorfon]	3
CC1=NNC(=O)N(N=Cc2cccnc2)C1 [Pymetrozin]	1.02
CCCC[n+]1cccc(S(=O)(=O)[O-])c1 [C4-APS]	1.11
COC(=O)Nc1nc2ccccc2[nH]1 [Carbendazim]	2.38
CC1NCCc2cc(O)c(O)cc21 (stereo not given) [SALSOLINOL]	0.749
COCCCNc1nc(NC(C)C)nc(SC)n1 [Methoprotryne]	3.87
CCCCCCCCCCCCCCCCCC(=O)OC(CC(=O)[O-])C[N+](C)(C)C [Stearoyl-L-carnitine]	5.89
CCCC1COC(Cn2cncn2)(c2ccc(Cl)cc2Cl)O1 (stereo not given) [Propioconazole]	5.3
CC#Cc1cc(C)nc(Nc2ccccc2)n1 [Mepanipyrim]	5.11
Cc1ccc(NC(=O)N(C)C)cc1Cl [Chlorotoluron]	4.15
O=C(NC(=O)c1c(F)cccc1F)Nc1cc(Cl)c(F)c(Cl)c1F [Teflubenzuron]	5.7
Nc1cc(O)cc(C(=O)O)c1 [3-AMINO-5-HYDROXYBENZOATE]	0.722
C#CC(C)(C)NC(=O)c1cc(Cl)cc(Cl)c1 [Propyzamide]	5.01
Cc1nc(N(C)C)nc(OC(=O)N(C)C)c1C [Pirimicarb]	3.06
Cc1ccn2nc(S(=O)(=O)Nc3c(F)cccc3F)nc2n1 [Flumetsulam]	3.43

SMILES	LC retention time [min]
CCCN(CCOc1c(Cl)cc(Cl)cc1Cl)C(=O)n1ccnc1 [Prochloraz]	4.73
O=c1[nH]c2c(c(=O)n1C1CCCCC1)CCC2 [Lenacil]	3.96
CCSC(=O)N1CCCCCC1 [Molinate]	5.03
Cc1nn(-c2cc(NS(C)(=O)=O)c(Cl)cc2Cl)c(=O)n1C(F)F [Sulfentrazone]	4.21
CCCCCCCCCCCC[n+]1cccc(S(=O)(=O)[O-])c1 [C12-APS]	4.89
CCCCCCCCCCCCCCC[n+]1cccc(S(=O)(=O)[O-])c1 [C15-APS]	5.78
CNC(=N[N+](=O)[O-])NCC1CCOC1 (stereo not given) [Dinotefuran]	2.2
CNC(=O)CSP(=S)(OC)OC [Dimethoate]	3.27
C=CCNC(=O)c1c([Si](C)(C)C)sc(C)c1C [Silthiofam]	5.36
CCNc1nc(NC(C)CC)nc(OC)n1 (stereo not given) [Secbumeton]	3.53
O=C/C=C/c1ccccc1 [TRANS-CINNAMALDEHYDE]	5
C[C@H](CCC(=O)O)[C@H]1CC[C@H]2[C@@H]3CC[C@@H]4CC(=O)CC[C@]4(C)[C@H]3CC[C@]12C [3-Oxo-5β-cholanoic Acid]	6.05
CCOP(=S)(OCC)ON=C(C#N)c1ccccc1 [Phoxim]	5.44
CC(CCCC(C)C1CCC2C3C(O)CC4=CC(=O)CCC4(C)C3CCC12C)C(=O)O (stereo not given) [7-Hydroxy-3-oxo-Cholest-4-en-26-oic Acid]	5.53
Cc1nnc(-c2ccccc2)c(=O)n1N [Metamitron]	3.09
CCC(CC)Nc1c([N+](=O)[O-])cc(C)c(C)c1[N+](=O)[O-] [Pendimethalin (Penoxalin)]	5.42
CCOC(=O)CCN(SN(C)C(=O)Oc1cccc2c1OC(C)(C)C2)C(C)C [Benfuracarb]	6.01
COc1nc(C)nc(NC(=O)NS(=O)(=O)c2ccccc2OCCCl)n1 [Triasulfuron]	4.09
CCCCCCCCCCC[n+]1cccc(S(=O)(=O)[O-])c1 [C11-APS]	4.59
CC(CCC(=O)NCC(=O)O)C1CCC2C3CCC4CC(O)CCC4(C)C3CC(O)C12C (stereo not given) [Glycodeoxycholic acid]	4.66
O=C(NC(=O)c1c(F)cccc1F)Nc1ccc(OC(F)(F)C(F)OC(F)(F)F)c(Cl)c1 (stereo not given) [Novaluron]	5.71
O=C(O)c1ccc(O)c(O)c1 [3,4-DIHYDROXYBENZOATE]	1.66

SMILES	LC retention time [min]
CC(C)(C)C(=O)C(Oc1ccc(Cl)cc1)n1cncn1 (stereo not given) [Triadimefon]	4.95
CCCCCCCC[n+]1cccc(S(=O)(=O)[O-])c1 [C8-APS]	3.67
Cn1c(=O)c2[nH]cnc2n(C)c1=O [THEOPHYLLINE]	2.15
CCOC(=O)OC1=C(c2cc(C)ccc2C)C(=O)NC12CCC(OC)CC2 (stereo not given) [Spirotetramat]	4.8
O=[N+]([O-])NC1=NCCN1Cc1ccc(Cl)nc1 [Imidacloprid]	3.19
Cc1ccc(-c2c(Cl)nc(C#N)n2S(=O)(=O)N(C)C)cc1 [Cyazofamid]	5.39
C[C@H](CCC(=O)O)[C@H]1CC[C@H]2[C@@H]3[C@H](O)C[C@@H]4C[C@H](O)CC[C@]4(C)[C@H]3CC(=O)[C@]12C [(3ALPHA,5BETA,7ALPHA)-3,7-DIHYDROXY-12-OXOCHOLAN-24-OIC ACID]	4.24
OC(Cn1cncn1)(c1ccc(F)cc1)c1ccccc1F (stereo not given) [Flutriafol]	4.2
CCCN(CC)CC1COC2(CCC(C(C)(C)C)CC2)O1 (stereo not given) [Spiroxamine]	4.29
O=C(NC(=O)c1ccccc1Cl)Nc1ccc(OC(F)(F)F)cc1 [Triflumuron]	5.42
CCCCCCCCCC=CC(=O)OC(CC(=O)[O-])C[N+](C)(C)C [trans-2-Dodecenoyl-L-carnitine]	4.5
CC(=NC#N)N(C)Cc1ccc(Cl)nc1 [Acetamiprid]	3.33
CC1C(c2ccc(Cl)cc2)SC(=O)N1C(=O)NC1CCCCC1 (stereo not given) [Hexythiazox]	6.21
CNC(=O)CSP(=O)(OC)OC [Omethoate]	1.75
OCC1OC(O)C(O)C1O (stereo not given) [RIBOSE]	0.798
CCCCCCSCC(NC(=O)CCC(N)C(=O)O)C(=O)NCC(=O)O (stereo not given) [S-HEXYL-GLUTATHIONE]	3.31
CCCCCCC=CC#CCCCCCCCC(=O)O [Ximeninic Acid]	6.4
O=C(O)c1ccccn1 [PICOLINATE]	0.719
O=C(O)c1ccccc1 [BENZOATE]	2.13
CCC1CCCC(OC2CCC(N(C)C)C(C)O2)C(C)C(=O)C2=CC3C(C=CC4CC(OC5OC(C)C(OC)C(OC)C5OC)CC43)C2CC(=O)O1 (stereo not given) [Spinosad A & D]	4.76
CCS(=O)(=O)c1nnc(N(C)C(=O)NC)s1 [Sulfadiazole]	3.13
